# Reference: patent publication US10189809B2, “SGC stimulators” (Ironwood Pharmaceuticals, Inc., priority 2010, dated 2019)
# Where two headings read alike, the source gives them in different places.
# Columns and labels:
# [1] = biological target: soluble guanylate cyclase (sGC) (Homo sapiens (Human), UniProt Q02108+Q02153); assay: sGC-HEK-cGMP assay run with SNP incubation (HEK WC assay); format: cell-based
# Procedure: Human embryonic kidney cells (HEK293), endogenously expressing soluble guanylate cyclase (sGC), were used to evaluate the activity of test compounds. Compounds stimulating the sGC receptor should cause an increase in the intracellular concentration of cGMP. HEK 293 cells were seeded in Dulbecco's Modification of Eagle's Medium supplemented with fetal bovine serum (10% final) and L-glutamine (2 mM final) in a 200 μL volume at a density of 1×10^5 cells/well in a poly-D-lysine coated 96 well flat bottom plate and grown overnight at 37° C. Medium was aspirated and cells were washed with 1× Hank's Buffered Saline Salt Solution (200 μL). Cells were then incubated for 15 minutes at 37° C. with 0.5 mM 3-isobutyl-1-methylxanthine (200 μL). Test article and sodium nitroprusside were then added to the assay mixture (2 μL each) and incubated at 37° C. for 10 minutes. After the 10 minute incubation, the assay mixture was aspirated and 0.1M HCl (200 μL) was added to the cells. The plate was incubated at 4° C. for 30 minutes in the 0.1M HCl to stop the reaction and lysed the cells. The plates were then centrifuged at 1,200 g for 5 minutes at room temperature. Supernatants were collected and transferred to a new flat bottom 96 well plate for analysis. Vehicle controls were carried out using DMSO (1%). […] Samples were diluted with an equal volume of 1 M Ammonium Acetate (pH 7) to neutralize samples for better chromatography. […] EC50 values were calculated from concentration-response curves generated with GraphPad Prism Software.
# [2] = biological target: Human soluble guanylate cyclase enzyme (hsGC) (Homo sapiens (Human), UniProt Q02108+Q02153); assay: Purified human sGC enzyme activity assay; format: biochemical; conditions: for sGC Enzyme (specific activity at 10 μM) / sGC Enzyme (fold increase at 10 μM without SNP) / sGC Enzyme (fold increase at 10 μM): 10 μM compound; for sGC Enzyme (specific activity at 30 μM) / sGC Enzyme (fold increase at 30 μM without SNP) / sGC Enzyme (fold increase at 30 μM): 30 μM compound; for sGC Enzyme (fold increase at 10 μM) / sGC Enzyme (fold increase at 30 μM): without the addition of SNP
# Procedure: Human soluble guanylate cyclase enzyme (hsGC) obtained from Enzo Inc. (P/N: ALX-201-177) was used to evaluate the activity of test compounds. The assay reactions contained 0.1 M Tris (pH 8.0), 0.5 mg/mL BSA (pH 8.0), 2 mM DTT, 2 mM MgCl2, 300 μM GTP, 1 mM 3-isobutyl-1-methylxanthine (IBMX) and 5 ng human soluble guanylate cyclase enzyme. Test compounds in DMSO were then added (2 μL, 10 or 30 μM final concentration) and incubated (200 μL, 96-well plate format) at 37° C. for 30 minutes. The controls were carried out using 2 μL DMSO. After the 30 minute incubation, the reaction was stopped with the addition of 200 μL of cold methanol. The plate was then centrifuged at 3,200 rpm for 10 minutes at room temperature. Supernatants (200 μL) were collected and transferred to a new 96 well plate for analysis.
# An 8 point cGMP (Sigma-Aldrich P/N: G6129) standard curve was prepared in assay buffer ranging from 0.156-20 μM. Samples for the cGMP standard curve were then diluted with an equal volume of methanol resulting in final cGMP concentrations of 0.078-10 μM.
# The cGMP standard curve was generated using GraphPad Prism Software.
# Calculations: Specific Activity was determined by the amount of cGMP formed (nmoles) per mg of sGC per min. Enzyme “fold-change” was calculated by dividing Specific Activity for test compounds by Specific Activity of DMSO controls.
# [3] = read-out: HEK WC Assay (% Emax at 10 uM/with 10 uM SNP)
# [4] = read-out: HEK WC Assay (% Emax at 30 uM/with 10 uM SNP)
# Human soluble guanylate cyclase enzyme (hsGC), sequence (Q02153 whole entry): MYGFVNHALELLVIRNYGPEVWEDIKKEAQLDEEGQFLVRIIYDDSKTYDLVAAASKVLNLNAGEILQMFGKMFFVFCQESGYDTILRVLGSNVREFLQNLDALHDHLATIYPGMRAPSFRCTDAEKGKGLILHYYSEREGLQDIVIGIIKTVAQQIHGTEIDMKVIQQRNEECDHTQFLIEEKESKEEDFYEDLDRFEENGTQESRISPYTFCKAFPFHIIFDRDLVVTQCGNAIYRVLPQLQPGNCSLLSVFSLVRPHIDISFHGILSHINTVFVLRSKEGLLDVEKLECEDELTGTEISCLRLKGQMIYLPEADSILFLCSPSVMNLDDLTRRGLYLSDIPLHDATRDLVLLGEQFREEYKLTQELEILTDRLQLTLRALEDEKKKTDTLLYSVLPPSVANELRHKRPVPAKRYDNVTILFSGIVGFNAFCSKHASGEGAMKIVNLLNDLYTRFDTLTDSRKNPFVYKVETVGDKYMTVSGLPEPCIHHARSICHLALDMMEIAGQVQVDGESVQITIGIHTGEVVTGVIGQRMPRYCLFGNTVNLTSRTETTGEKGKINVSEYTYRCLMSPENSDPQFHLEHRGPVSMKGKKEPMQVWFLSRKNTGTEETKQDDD
# Human soluble guanylate cyclase enzyme (hsGC), sequence (Q02108 whole entry): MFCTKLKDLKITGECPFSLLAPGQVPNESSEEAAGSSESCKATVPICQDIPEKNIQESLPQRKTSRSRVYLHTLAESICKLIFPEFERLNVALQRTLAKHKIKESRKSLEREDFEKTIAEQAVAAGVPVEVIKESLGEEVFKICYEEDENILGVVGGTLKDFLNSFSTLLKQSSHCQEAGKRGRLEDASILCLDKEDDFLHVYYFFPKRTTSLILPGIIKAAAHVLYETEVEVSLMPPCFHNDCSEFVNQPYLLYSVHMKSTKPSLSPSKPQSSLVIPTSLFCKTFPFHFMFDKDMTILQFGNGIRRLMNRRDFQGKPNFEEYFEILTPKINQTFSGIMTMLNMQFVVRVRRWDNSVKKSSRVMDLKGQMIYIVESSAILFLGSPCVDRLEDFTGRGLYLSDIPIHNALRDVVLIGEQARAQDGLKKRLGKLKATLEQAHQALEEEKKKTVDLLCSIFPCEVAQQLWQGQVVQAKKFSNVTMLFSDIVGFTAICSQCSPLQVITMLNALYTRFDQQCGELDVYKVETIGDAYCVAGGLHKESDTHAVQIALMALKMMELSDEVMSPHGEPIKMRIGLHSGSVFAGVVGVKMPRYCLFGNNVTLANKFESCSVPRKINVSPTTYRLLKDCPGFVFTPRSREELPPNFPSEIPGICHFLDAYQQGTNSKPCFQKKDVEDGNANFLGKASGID
# soluble guanylate cyclase (sGC), sequence (Q02153 whole entry): as the sequence (Q02153 whole entry) above
# soluble guanylate cyclase (sGC), sequence (Q02108 whole entry): as the sequence (Q02108 whole entry) above
Structure (SMILES),"Emax at 10 µM [1, 3] [%]","Emax at 30 µM [1, 4] [%]",sGC Enzyme (specific activity at 10 μM) [2],sGC Enzyme (fold increase at 10 μM without SNP) [2],sGC Enzyme (specific activity at 30 μM) [2],sGC Enzyme (fold increase at 30 μM without SNP) [2],Emax at 10 µM ([1]; read-out: HEK WC Assay (% Emax at 10 μM/with 10 uM SNP)) [%],Emax at 30 µM ([1]; read-out: HEK WC Assay (% Emax at 30 μM/with 10 uM SNP)) [%],sGC Enzyme (fold increase at 10 μM) [2],sGC Enzyme (fold increase at 30 μM) [2]
Cc1cc(-c2cc(-c3ccccn3)nn2Cc2ccccc2F)c(C)s1 [Compound I-8],0 to 10,0 to 10,C (C = 100 to <200),A (A = no increase to <2 fold increase),D (D = 200 to <500),B (B = 2 to <5 fold increase),,,,
"COc1ccc(-c2cc(-c3ncccn3)nn2Cc2ccccc2F)cn1 [Compound I-77, 2-(1-(2-fluorobenzyl)-5-(6-methoxypyridin-3-yl)-1H-pyrazol-3-yl)pyrimidine]",,,,,,,,,A (A = no increase to <2 fold increase),A (A = no increase to <2 fold increase)
"CS(=O)(=O)c1ccc(-c2cc(-c3ccccn3)n(Cc3ccccc3F)n2)nc1 [Compound I-50, 2-(1-(2-fluorobenzyl)-5-(pyridin-2-yl)-1H-pyrazol-3-yl)-5-(methylsulfonyl)pyridine]",0 to 10,0 to 10,B (B = 50 to <100),A (A = no increase to <2 fold increase),B (B = 50 to <100),A (A = no increase to <2 fold increase),,,,
N#Cc1cccc(-c2cc(-c3ccccn3)nn2Cc2ccccc2F)c1 [Compound I-16],,,B (B = 50 to <100),A (A = no increase to <2 fold increase),B (B = 50 to <100),A (A = no increase to <2 fold increase),,,,
N#Cc1ccc(-c2cc(-c3ccccn3)nn2Cc2ccccc2F)cc1 [Compound I-17],,,B (B = 50 to <100),A (A = no increase to <2 fold increase),B (B = 50 to <100),A (A = no increase to <2 fold increase),,,,

# Results, then the compound that gave them:
"Emax at 10 µM [1, 3] [%]","Emax at 30 µM [1, 4] [%]",sGC Enzyme (specific activity at 10 μM) [2],sGC Enzyme (fold increase at 10 μM without SNP) [2],sGC Enzyme (specific activity at 30 μM) [2],sGC Enzyme (fold increase at 30 μM without SNP) [2],Emax at 10 µM ([1]; read-out: HEK WC Assay (% Emax at 10 μM/with 10 uM SNP)) [%],Emax at 30 µM ([1]; read-out: HEK WC Assay (% Emax at 30 μM/with 10 uM SNP)) [%],sGC Enzyme (fold increase at 10 μM) [2],sGC Enzyme (fold increase at 30 μM) [2],Structure (SMILES)
,,,,,,0 to 10,0 to 10,A (A = no increase to <2 fold increase),A (A = no increase to <2 fold increase),Fc1ccccc1Cn1nc(-c2ccccn2)cc1-c1ncccn1 [Compound I-80]
0 to 10,0 to 10,,A (A = no increase to <2 fold increase),,A (A = no increase to <2 fold increase),,,,,Fc1ccccc1Cn1nc(-c2ncccn2)cc1-c1cc2ccccc2o1 [Compound I-68]
0 to 10,0 to 10,C (C = 100 to <200),A (A = no increase to <2 fold increase),C (C = 100 to <200),B (B = 2 to <5 fold increase),,,,,Fc1cccc(-c2cc(-c3ccccn3)nn2Cc2ccccc2F)c1 [Compound I-9]
,,,,,,,,A (A = no increase to <2 fold increase),A (A = no increase to <2 fold increase),COc1cccc(-c2cc(-c3ccccn3)n(Cc3ccccc3F)n2)n1 [Compound I-78]
